Assay: Measurement of oxidation induction time (OIT) by DSC
Assay type: physicochemical
Settings: with liquid polyisoprene LIR-50, DSC; for Time until onset of oxidation (oxidation induction time) at 150° C.: isothermal 150° C., experiments terminated after 900 minutes; for Time until onset of oxidation (oxidation induction time) at 150° C. / Time until onset of oxidation (oxidation induction time) at 165° C.: O2 atmosphere; for Time until onset of oxidation (oxidation induction time) at 165° C.: isothermal 165° C.; for Time until onset of oxidation (oxidation induction time) at 180° C.: isothermal 180° C., O2 atmosphere 50 ml/min
Procedure: Measurement of Oxidation Induction Time (OIT)
The compound of formula III) was investigated under laboratory conditions for its potential protective effect as an aging stabilizer by measurement of the oxidation induction time.
To this end the compounds of formula III) and 6PPD, in each case together with a polymer (liquid synthetic polyisoprene (IR), LIR-50, Kuraray, weight average molecular weight distribution Mw=54 000 g/mol, glass transition temperature Tg=−63° C.), were heated at constant temperature at three different temperatures (180° C.; 165° C.; 150° C.) until onset of oxidation.
Heating to 180° C. was carried out as follows: • Starting temperature 35° C., heating to 170° C. at a heating rate of 20 K/min (kelvin per minute), heating to 180° C. at a heating rate of 1 K/min; purge gas: nitrogen (N2), volume flow 50 ml/min).
The specimen was kept under isothermal conditions at 180° C. under an N2 atmosphere for 5 minutes and the atmosphere was then switched to an O2 atmosphere (volume flow 50 ml/min).
The heating to 165° C. was carried out analogously by first heating to 155° C. at a heating rate of 20 K/min (kelvin per minute) and then heating to 165° C. at a heating rate of 1 K/min.
The heating to 150° C. was carried out analogously by first heating to 140° C. at a heating rate of 20 K/min (kelvin per minute) and then heating to 150° C. at a heating rate of 1 K/min.
Oxidation was determined over one peak using DSC (differential scanning calorimetry).
The time in minutes until oxidation was measured in each case.

SMILES | Time until onset of oxidation (oxidation induction time) at 150° C. | Time until onset of oxidation (oxidation induction time) at 165° C. | Time until onset of oxidation (oxidation induction time) at 180° C.
CC(C)CC(C)Nc1ccc2c(c1)C(=O)Nc1ccccc1N2 (stereo not drawn) [Formula III), 2-(1,3-dimethylbutylamino)-5,10-dihydro-dibenzo[b,e][1,4]diazepin-11-one] | >900 min | 459 ± 10 min | 169 ± 10 min
CC(C)CC(C)Nc1ccc(Nc2ccccc2)cc1 (stereo not drawn) [Formula 6PPD, N-(1,3-dimethylbutyl)-N′-phenyl-p-phenylenediamine] | >900 min | 356 ± 10 min | 116 ± 10 min

Source: patent US20250250241A1, “COMPOUND, PREPARATION AND USE THEREOF IN RUBBER BLENDS AND VEHICLE TIRES, AS AN ANTI-AGING AGENT, ANTIOXIDANT, ANTIOXIDANT AND/OR COLORING AGENT” (Continental Reifen Deutschland GmbH, priority 2022, published 2025)
